Patent US20080312209A1, “Piperazine Heteroaryl Derivatives as Gpr38 Agonists” (Glaxo Group Limited, priority 2005, published 2008)
Counter-ions that a name gives are not always drawn.

Columns and labels:
[1] = molecular target: T1, hGPR38R (Homo sapiens, UniProt O43193); assay: GPR38 FLIPR functional agonist assay; format: cell-based; set-up: expressed in transfected cells; conditions: HEK-293 cells stably expressing the GPR38 receptor, agonist response, Fluo-4 fluorescence
Procedure: The potencies and efficacies of the compounds of this invention for GPR^38 can be determined by FLIPR assay performed on the human cloned receptor as described herein. It has been found, using the FLIPR functional assay, that compounds of formula (I) appear to be partial or full agonists of the GPR38 receptor.
GPR38FLIPR Functional Agonist Assay Protocol
HEK-293 cells stably expressing the GPR38 receptor were seeded (10,000 cells/well) into poly-D-lysine coated 384-well black-wall, clear-bottom microtitre plates (Becton Dickinson) 24 h prior to assay. On day of assay, cells were washed (×2) with 80 ul of assay buffer (Hanks Balanced Salts Solution (HBSS), 10 mM HEPES, 200 μM Ca^2+, 2.5 mM probenecid) using the EMBLA cell washer. After the final wash, buffer was aspirated to leave a residual volume of 30 ul on the cells. Cells were loaded with 1 μM (final) Fluo-4-AM fluorescent indicator dye (TefLabs) in assay buffer, (20 ul loading solution added to each well using the Multidrop). Plates were incubated for 1 h at 37° C., before being washed (×3) with 80 ul assay buffer using the EMBLA cell washer; 30 ul residual being left after the final wash. Plates were then assayed on a Fluorometric Imaging Plate Reader (FLIPR, Molecular Devices). Test compounds were prepared in assay buffer without probenecid, but containing 0.03% CHAPS. In the FLIPR, 10 ul of test compound was added to the cells and changes in fluorescence measured over a 2 min timeframe. Maximum change in fluorescence over baseline was used to determine agonist response and concentration response curves were constructed, using a 4-parameter logistic equation.
(§1) The following alternative procedure may also be used:
HEK-293 cells stably expressing the GPR38 receptor were seeded (30,000 cells/100 ul growth media/well) into poly-D-lysine coated 96-well black-wall, clear-bottom microtitre plates (Corning) 24 hours prior to assay. On the day of assay the cells were loaded with 2 μM (final) Fluo-4-AM fluorescent indicator dye (Molecular Probes) and 1 mM (final) probenicid in assay buffer (145 mM sodium chloride, 2.5 mM potassium chloride, 10 mM Hepes, 10 mM glucose, 1.2 mM magnesium chloride, 1.5 mM calcium chloride and 0.1% BSA) (50 ul loading solution added to each well). Plates were incubated for 1 hour at 25° C., before being washed 4 times with 100 ul assay buffer using the EMBLA cell washer; 150 ul residual being left after the final wash. The cells were then incubated at 25° C. for 20 minutes and the plates were then assayed on a Fluorometric Imaging Plate Reader (FLIPR, Molecular Devices). Test compounds were prepared in assay buffer without probenecid. In the FLIPR, 50 ul of test compound was added to the cells and changes in fluorescence measured over a 2 minute timeframe. Maximum change in fluorescence over baseline was used to determine agonist response and concentration response curves were constructed, using a 4-parameter logistic equation.
Target sequence in this assay (O43193 whole entry): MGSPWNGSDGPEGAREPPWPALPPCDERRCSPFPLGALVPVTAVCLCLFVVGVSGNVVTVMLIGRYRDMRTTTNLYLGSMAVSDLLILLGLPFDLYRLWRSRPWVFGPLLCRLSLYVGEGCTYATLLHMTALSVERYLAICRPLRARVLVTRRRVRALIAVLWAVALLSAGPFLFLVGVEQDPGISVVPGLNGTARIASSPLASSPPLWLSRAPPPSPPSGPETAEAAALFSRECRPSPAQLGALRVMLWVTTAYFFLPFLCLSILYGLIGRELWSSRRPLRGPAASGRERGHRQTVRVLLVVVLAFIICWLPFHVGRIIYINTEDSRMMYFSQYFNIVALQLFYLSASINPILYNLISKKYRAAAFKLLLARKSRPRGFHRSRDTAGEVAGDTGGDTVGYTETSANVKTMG

[2] = molecular target: T1, hGPR38R; assay: GPR38 GTPγS functional agonist assay; format: biochemical; set-up: expressed in transfected cells; host or cells: HEK293 (transient transfection; P2 membrane fractions)
Procedure: The potencies and intrinsic activities of the compounds of this invention can also be determined according to the [35S]GTPγS functional assay which is described herein. It has been found, using the [35S]GTPγS functional assay, that compounds of formula (I) appear to be partial or full agonists of the GPR38 receptor.
GPR38GTPγS Functional Agonist Assay Protocol
For each compound being assayed, in an Opti clear bottom 96 well plate, is added:—
(a) 20 μl of test compound (or 10 μl of guanosine 5′-triphosphate (GTP) as non-specific binding control) diluted to required concentration in assay buffer (20 mM N-2-Hydroxyethylpiperazine-N′-2-ethanesulfonic acid (HEPES)+100 mM NaCl+10 mM MgCl2, pH adjusted to 7.4 with NaOH); (b) 60 μl bead/membrane/GDP mix prepared by suspending wheat germ agglutinin-polyvinyltoluene (WGA-PVT) scintillation proximity assay (SPA) beads at 100 mg/ml in assay buffer followed by mixing with membrane (prepared in accordance with the methodology described above) and diluting in assay buffer to give a final volume of 60 μl which contains 10 μg protein and 0.5 mg bead per well—mixture is pre-mixed at 4° C. for 30 min on a roller and just prior to addition to the plate, 10 μM final concentration of guanosine 5′ diphosphate (GDP—diluted in assay buffer) is added; (c) 20 μl guanosine 5′ [γ35-S]thiotriphosphate, triethylamine salt (Amersham; radioactivity concentration=37 kBq/μl or 1 mCi/ml; Specific Activity 1160 Ci/mmol) diluted to 1.9 nM in assay buffer to give 0.38 nM final.
The plate is incubated on a shaker at 25° C. for 30 min followed by centrifugation for 5 min at 1500 rpm. The plate is read between 3 and 6 h after completion of centrifuge run in a Wallac Microbeta counter on a 1 min normalised tritium count protocol. Data is analysed using a 4-parameter logistic equation. Basal activity used as minimum.
as §1
Target sequence in this assay (O43193 whole entry): as above
Target sequence in this assay (P09471 2-354 partner limits assumed): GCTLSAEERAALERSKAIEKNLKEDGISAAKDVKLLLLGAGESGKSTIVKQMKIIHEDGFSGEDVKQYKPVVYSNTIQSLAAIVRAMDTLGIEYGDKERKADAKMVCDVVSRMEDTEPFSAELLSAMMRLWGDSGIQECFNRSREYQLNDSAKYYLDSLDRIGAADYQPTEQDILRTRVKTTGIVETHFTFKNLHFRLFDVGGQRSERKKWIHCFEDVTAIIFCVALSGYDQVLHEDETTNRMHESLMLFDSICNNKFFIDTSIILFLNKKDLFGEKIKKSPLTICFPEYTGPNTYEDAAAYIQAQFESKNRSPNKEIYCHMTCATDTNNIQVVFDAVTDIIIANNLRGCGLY
Target sequence in this assay (P62873 2-340 partner limits assumed): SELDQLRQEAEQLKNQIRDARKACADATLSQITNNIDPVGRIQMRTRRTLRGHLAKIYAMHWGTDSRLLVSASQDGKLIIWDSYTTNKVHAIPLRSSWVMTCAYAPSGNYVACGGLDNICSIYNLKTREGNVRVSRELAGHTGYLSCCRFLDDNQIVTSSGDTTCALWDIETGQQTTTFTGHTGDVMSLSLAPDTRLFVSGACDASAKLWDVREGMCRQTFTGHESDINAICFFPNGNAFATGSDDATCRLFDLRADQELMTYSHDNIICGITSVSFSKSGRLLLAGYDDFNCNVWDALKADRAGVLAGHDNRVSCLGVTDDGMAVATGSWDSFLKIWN
Target sequence in this assay (P59768 2-68 partner limits assumed): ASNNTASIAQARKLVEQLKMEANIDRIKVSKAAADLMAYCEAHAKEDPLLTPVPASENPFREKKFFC
Membranes are derived from bulk cell cultures of HEK293 cell lines transiently transfected with hGPR38R and Go G-protein. P2 membranes fractions are prepared, aliquoted and stored at −80° C.
For each compound being assayed, the following is added into a white Greiner 384 well plate:—
(a) 1 μl of test compound diluted to required concentration in DMSO. (b) 20 μl bead/membrane/Saponin/GDP mix prepared as follows;—suspension of LEADseeker wheat germ agglutinin (WGA) scintillation proximity assay (SPA) beads at 25 mg/ml in assay buffer (20 mM N-2-Hydroxyethylpiperazine-N′-2-ethanesulfonic acid (HEPES)+100 mM NaCl+10 mM MgCl2, pH adjusted to 7.4 with KOH) containing saponin at 150 ug/ml. Mixing of bead suspension with membranes at 500 ug/ml (prepared in accordance with the methodology described above) and diluting in assay buffer to give a final volume of 20 μl which contains 5 μg protein and 0.25 mg bead per well.
Mixture is pre-mixed for 30 minutes on a roller and just prior to addition to the plate, 3 μM final assay concentration of guanosine 5′ diphosphate (GDP) (diluted in assay buffer) is added.
(c) 25 μl guanosine 5′ [γ35-S]thiotriphosphate, triethylamine salt (Amersham; radioactivity concentration=37 kBq/μl or 1 mCi/ml; Specific Activity 1160 Ci/mmol) diluted to 0.6 nM in assay buffer to give 0.33 nM final assay concentration.
The plate is then spun for 2 minutes at 1500 rpm and then incubated at room temperature for 4 hours. The plate is then read on a Viewlux Plux (Perkin Elmer). Data is analysed using a 4-parameter logistic equation.

[3] = read-out: pEC50 in the FLIPR assay (converted)
[4] = [35S]GTPγS SPA, HEK293 membranes with hGPR38R and Go G-protein, read-out: pEC50 in the GTPγS assay (converted)

| SMILES | EC50 [1, 3] [µM] | EC50 [2, 4] [µM] | EC50 ([1]; pEC50 in the FLIPR assay) [µM] | EC50 [2] [µM] |
| --- | --- | --- | --- | --- |
| C[C@@H]1CN(Cc2ccc(-c3cccnc3C(=O)N3CCC(Cc4ccc(F)cc4)CC3)cc2)C[C@H](C)N1 [Example 1, (3R,5S)-3,5-Dimethyl-1-({4-[2-({4-[(4-Fluorophenyl)methyl]piperidin-1-yl}carbonyl)pyridin-3-yl]phenyl}methyl)piperazine] | < 0.316 | < 3.16 |  |  |
| C[C@@H]1CN(Cc2ccc(-c3cccnc3C(=O)N3CCC(Nc4ccc(F)cc4)CC3)cc2)C[C@H](C)N1 [Example 2, (3R,5S)-3,5-Dimethyl-1-({4-[2-({4-[(4-fluorophenyl)amino]piperidin-1-yl}carbonyl)pyridin-3-yl]phenyl}methyl)piperazine] |  |  | < 0.316 | < 3.16 |
| C[C@@H]1CN(Cc2ccc(-c3cccnc3CN(C)C(=O)CCc3ccc(F)cc3)cc2)C[C@H](C)N1 [Example 3, N-{[3-(4{[(3R,5S)-3,5-Dimethyl-1-piperazinyl]methyl}phenyl)-2-pyridinyl]methyl}-3-(4-fluorophenyl)-N-methylpropanamide] | < 0.316 | < 3.16 |  |  |
| Cc1nc(C(=O)N2CCC(Cc3ccc(F)cc3)CC2)c(-c2ccc(CN3C[C@@H](C)N[C@@H](C)C3)cc2)s1 [Example 4, (3R,5S)-3,5-Dimethyl-1-({4-[4-({4-[(4-fluorophenyl)methyl]piperidin-1-yl}carbonyl)-2-methyl-1,3-thiazol-5-yl]phenyl}methyl)piperazine] |  | < 3.16 |  |  |
| Cc1nc(C(=O)N2CCC(Nc3ccc(F)cc3)CC2)c(-c2ccc(CN3C[C@@H](C)N[C@@H](C)C3)cc2)s1 [Example 5] |  |  |  | < 3.16 |
| Cc1nc(CN(C)C(=O)CCc2ccc(F)cc2)c(-c2ccc(CN3C[C@@H](C)N[C@@H](C)C3)cc2)s1 [Example 6, N-{[5-(4-{[(3R,5S)-3,5-Dimethyl-1-piperazinyl]methyl}phenyl)-2-methyl-1,3-thiazol-4-yl]methyl}-3-(4-fluorophenyl)-N-methylpropanamide dihydrochloride] | < 0.316 | < 3.16 |  |  |
| Cc1nc(CN(C)C(=O)COc2ccc(F)cc2)c(-c2ccc(CN3C[C@@H](C)N[C@@H](C)C3)cc2)s1 [Example 7, N-{[5-(4-{[(3R,5S)-3,5-dimethyl-1-piperazinyl]methyl}phenyl)-2-methyl-1,3-thiazol-4-yl]methyl}-2-[(4-fluorophenyl)oxy]-N-methylacetamide] |  | < 3.16 |  |  |
| C[C@H]1CN(Cc2ccc(-c3cccnc3C(=O)N3CCC(Nc4ccc(F)cc4)CC3)cc2)CCN1 [Example 8, N-(4-Fluorophenyl)-1-{[3-(4-{[(3S)-3-methyl-1-piperazinyl]methyl}phenyl)-2-pyridinyl]carbonyl}-4-piperidinamine] |  |  | < 0.316 | < 3.16 |
| C[C@@H]1CN(Cc2ccc(-c3cccnc3C(=O)N3CCC(Nc4ccc(F)cc4)CC3)cc2F)C[C@H](C)N1 [Example 9, 1-{[3-(4-{[(3R,5S)-3,5-dimethyl-1-piperazinyl]methyl}-3-fluorophenyl)-2-pyridinyl]carbonyl}-N-(4-fluorophenyl)-4-piperidinamine] |  |  | < 0.316 | < 3.16 |
| C[C@@H]1CN(Cc2ccc(-c3cccnc3C(=O)N3CCC(Nc4cccc(F)c4)CC3)cc2)C[C@H](C)N1 [Example 10, 1-{[3-(4-{[(3R,5S)-3,5-dimethyl-1-piperazinyl]methyl}phenyl)-2-pyridinyl]carbonyl}-N-(3-fluorophenyl)-4-piperidinamine] |  |  | < 0.316 | < 3.16 |
| C[C@@H]1CN(Cc2ccc(-n3ccnc3C(=O)N3CCC(Nc4ccccc4F)CC3)cc2)C[C@H](C)N1 [Example 23, 1-{[1-(4-{[(3R,5S)-3,5-dimethyl-1-piperazinyl]methyl}phenyl)-1H-imidazol-2-yl]carbonyl}-N-(2-fluorophenyl)-4-piperidinamine] |  |  |  | < 3.16 |
| C[C@@H]1CN(Cc2ccc(-n3ccnc3C(=O)N3CCC(Nc4ccc(F)cc4)CC3)cc2F)C[C@H](C)N1 [Example 24, 1-{[1-(4-{[(3R,5S)-3,5-dimethyl-1-piperazinyl]methyl}-3-fluorophenyl)-1H-imidazol-2-yl]carbonyl}-N-(4-fluorophenyl)-4-piperidinamine] |  |  |  | < 3.16 |
| C[C@@H]1CN(Cc2ccc(-n3ccnc3C(=O)N3CCC(Nc4cccc(F)c4)CC3)cc2F)C[C@H](C)N1 [Example 25, 1-{[1-(4-{[(3R,5S)-3,5-dimethyl-1-piperazinyl]methyl}-3-fluorophenyl)-1H-imidazol-2-yl]carbonyl}-N-(3-fluorophenyl)-4-piperidinamine] |  |  |  | < 3.16 |
| C[C@@H]1CN(Cc2ccc(-c3cccnc3C(=O)N3CCC(Nc4cc(F)cc(F)c4)CC3)cc2F)C[C@H](C)N1 [Example 27, N-(3,5-difluorophenyl)-1-{[3-(4-{[(3R,5S)-3,5-dimethyl-1-piperazinyl]methyl}-3-fluorophenyl)-2-pyridinyl]carbonyl}-4-piperidinamine] |  |  |  | < 3.16 |
| C[C@@H]1CN(Cc2ccc(-c3cccnc3C(=O)N3CCC(Nc4cccc(C#N)c4)CC3)cc2F)C[C@H](C)N1 [Example 30, 3-[(1-{[3-(4-{[(3R,5S)-3,5-dimethyl-1-piperazinyl]methyl}-3-fluorophenyl)-2-pyridinyl]car-bonyl}-4-piperidinyl)amino]benzonitrile] |  | < 3.16 |  |  |
| C[C@@H]1CN(Cc2ccc(-c3cccnc3C(=O)N3CCC(Oc4cccc(F)c4)CC3)cc2F)C[C@H](C)N1 [Example 35, (3R,5S)-1-({2-fluoro-4-[2-({4-[(3-fluorophenyl)oxy]-1-piperidinyl}carbonyl)-3-pyridinyl]phenyl}methyl)-3,5-dimethylpiperazine] | < 0.316 |  |  |  |
